Experiment [1] deals with human leukemia cell line T-ALL1 (with WT Notch1). As to the kind of experiment: Cell cycle (PI staining, S-G2-M cells) and cell number, T-ALL1. Type of experiment: cell-based. As to the method:
FIG. 2A is a series of charts showing representative cell cycle profiles of human leukemia cell line T-ALL1 (with WT Notch1) treated with a vehicle (V) (for palbociclib (PD) or compound GD), PD (0.5 μM), or compound GD at 1, 2.5, 5, 10, and 20 μM for 6 days.
FIG. 2B is a histogram summarizing the cell cycle distribution of the T-ALL1 cell line in FIG. 2A. Data shown are mean±S.D. (n=6); *P<0.05 vs its vehicle controls, t-test.
FIG. 2C is a chart showing the percentage of S-G2-M cells in samples in FIGS. 2A and 2B. […]
(§1) Table 2: Experimental Procedures: sensitivity to CDK6 kinase activity inhibition was tested by incubating different cell lines in the presence of CDK6 inhibitor GD007/PBS for either 24 hours for detecting the status of pRB-780 phosphorylation, or 5 days for determining the effect of GD007 on cell proliferation. (1) By immunoblotting (WB), we will detect phospho-pRB-S^780, one of the substrates of CDK6 kinase; (2) By using FACS analysis, we will stain treated cells with Propidium Iodide (PI), a commonly used fluorescent intercalator, to measure the subpopulation of cell cycle to reveal any impact of CDK6 inhibition on cell proliferation; (3) cell numbers will be counted using hemocytometer.

Experiment [2] deals with human leukemia cell line PEER (with WT Notch). Kind of experiment: Cell cycle (PI staining, S-G2-M cells), PEER. Type of experiment: cell-based. On the procedure: FIG. 3A Representative cell cycle profiles of human leukemia cell line PEER (with WT Notch) treated with a vehicle (V) (for palbociclib (PD) or compound GD), PD (0.5 μM), or compound GD at 0.05, 0.5, and 5 μM for 6 days.
FIG. 3B is a histogram summarizing the cell cycle distribution of the PEER cell line in FIG. 3A. Data shown are mean±S.D. (n=6); *P<0.05 vs its vehicle controls, t-test.
FIG. 3C is a chart showing the percentage of S-G2-M cells in FIG. 3B. […]
as §1

In experiment [3] the test system is human lung cancer cell line A549. Kind of experiment: Cell cycle (PI staining, S-G2-M cells) and pRB immunoblot, A549. It is filed as cell-based. On the procedure:
FIG. 4A is a series of charts showing representative cell cycle profiles of human lung cancer cell line A549 treated with a vehicle (V) (for palbociclib (PD) or compound GD), PD (0.5 μM), or compound GD at 0.005, 0.05, 0.5, and 5 μM for 6 days.
FIG. 4B is a histogram showing the cell cycle distribution of A549 cell line in FIG. 4A. Data shown are mean±S.D. (n=6); *P<0.05 vs its vehicle controls, t-test.
FIG. 4C is a chart showing the percentage of S-G2-M cells in FIG. 4B. IC50 for compound GD is ca. 0.05 μM.
FIG. […] Tubulin was used as a loading control.
as §1
In general terms: In western blotting, separated proteins are transferred to a membrane and probed.

The subject of the next experiment is mouse WT-MEFs. Kind of experiment: Cell cycle and cell number, WT-MEFs. Type of experiment: cell-based. As to the method: FIG. 6A is a series of charts showing representative cell cycle profiles of mouse WT-MEFs treated with a vehicle (V), PD (0.5 μM), LEE (10 μM), or compound GD at 1, 5, and 10 μM for 6 days.
FIG. 6B is a histogram summarizing the cell cycle distribution in FIG. 6A. Data shown are mean±S.D. (n=6); *P<0.05 vs vehicle control, t-test.
FIG. 6C is a chart showing the percentage of S-G2-M cells in FIG. 6B.
FIG. 6D is a bar graph summarizing the cell number of WT-MEFs treated with PD (0.5 μM), LEE (10 μM), or compound GD at varying doses for 6 days. Data shown are mean±S.D. (n=6); *P<0.05 vs vehicle control, t-test.
HCl salt of 6-acetyl-5-methyl-2-((4-(piperazin-1-ylmethyl)thiazol-2-yl)amino)pyrido[2,3-d]pyrimidin-7(8H)-one (Compound GD) prepared in Example 1 was examined for its inhibitory activity in cancer cell lines and WT and CDK6^−/− mouse embryonic fibroblasts (MEFs) and stromal vascular fractions (SVFs). MEFs and SVFs are enriched with mesenchymal stem cells (MSC) and pre-adipocytes which can differentiate into a variety of cell types, including adipocytes.

The subject of experiment [4] is phosphorylated pRB at SER-780 in MDA-MB231 cells. Kind of experiment: Immunoblot of phosphorylated pRB (SER-780) and PI staining, MDA-MB231. Type of experiment: cell-based. On the procedure:
FIG. 5A is an image of a representative immunoblot showing the levels of phosphorylated pRB at SER-780 in MDA-MB231 and HPBALL cells following treatment of these cells with a vehicle, PD, or compound GD for 24 hours. Tubulin was used as loading control.
as §1

Experiment [5] concerns A549 (lung cancer cells) xenograft tumors. Kind of experiment: A549 xenograft mouse model. Type of experiment: in vivo. The following applies: female Nod/Scid mice. As to the method:
A549 cells (3×10^5/each side) were inoculated ectopically in female Nod/Scid mice. One week after inoculation, tumor bearing mice were treated with GD at 200 mg/kg/day or PBS by oral gavage for 21 days. Data shown are mean±S.D. (n=8 for each group), *p<0.05, t-test, GD vs. PBS.
FIG. 10B is a graph showing body weight of two groups of mice during the observation time. Body weights shown are mean±S.D. (n=4 for each group).
We examined the therapeutic efficacy of GD against A549 (lung cancer cells) xenograft tumors. A549 cells (3×10^5 per side in 100 μl of 50% Matrigel) were inoculated ectopically in female Nod/Scid mice on both sides. When tumor sizes reached ˜50 mm^3, animals were divided into 2 groups (n=4 mice per group), and treated with PBS or GD at dose of 200 mg/kg/day over a 21-day period (Kwapisz, supra).
Tumor sizes were measured with standard calipers every day and tumor volumes were calculated using standard methods (caliper measurements are commonly collected along the longest two dimensions of the tumor x/y plane only, with the z-axis dimension assumed to be the same as the shortest dimension) (Tomayko et al., Cancer Chemother. Pharmacol. 24:148-154, 1989). Weekly body weights were measured at designed times. At the end of the experiments, all of the tumors were isolated from the mice and weighed.

A further experiment deals with Prostate Cancer: PC-3. As to the kind of experiment: pRB-780 immunoblot, PC-3. Type of experiment: cell-based. To be noted: WB: P-RB-780. As to the method:
as §1

“Also recorded” adds a separate entry of the source.

With `CC(=O)c1c(C)c2cnc(Nc3nc(CN4CCNCC4)cs3)nc2[nH]c1=O` [Compound GD, 6-acetyl-5-methyl-2-((4-(piperazin-1-ylmethyl)thiazol-2-yl)amino)pyrido[2,3-d]pyrimidin-7(8H)-one], the IC50 is approximately 1100 nM in experiment [1] (Homo sapiens, TALL-1, 144 h, T-ALL1, 6 days, read-out: IC50 (percentage of S-G2-M cells, growth inhibition)); approximately 1300 nM in experiment [2] (Homo sapiens, 144 h, PEER, 6 days, read-out: IC50 (percentage of S-G2-M cells, growth inhibition)); approximately 50 nM in experiment [3] (Homo sapiens, 144 h, A549, 6 days, read-out: IC50 (percentage of S-G2-M cells)); approximately 1200 nM in the experiment on mouse WT-MEFs (144 h, mouse WT-MEF, 6 days, read-out: IC50 (proliferation, percentage of S-G2-M cells)). Moreover, the “Compound GD Efficacy” value in experiment [1] (Leukemic cells: TALL1, PI Staining, and cell number counting) was “Efficacious”; in experiment [2] (Leukemic cells: PEER, PI Staining, and cell number counting) it was “Efficacious”; in experiment [3] (Lung Cancer: A549, WB: P-RB-780, PI staining), “Efficacious”; in experiment [4] (MDA-MB231, PI staining and WB: P-RB-780) it was “Efficacious”; in the experiment on Prostate Cancer: PC-3, “No”. The “growth of lung cancer cell line A549” value in experiment [3] (FIGS. 4A-4D) is recorded as “inhibits growth”. In the experiment on mouse WT-MEFs (WT-MEFs, FIG. 6B, GD 10 μM vs PD 0.5 μM), the “fraction of dead cells (effect on cell viability) relative to PD” value is given as “smaller”. Besides, the pRB phosphorylation result in experiment [4] (breast cancer cell line MDA-MB231, 24 hours) is reported as “inhibits pRB phosphorylation”. The “tumor weights vs PBS” value in experiment [5] (200 mg/kg/day for 21 days, end of experiment, FIGS. 10D-10E) is “reduced; also recorded: decreased tumor weights”. In addition, the “tumor volumes (xenograft tumor growth) vs PBS” value in experiment [5] (200 mg/kg/day oral gavage for 21 days, FIG. 10A) is “reduced; also recorded: suppressed xenograft tumor growth”.

The values above are taken from patent US12312346B2, “Pyridopyrimidine compounds and methods of their use” (Tufts Medical Center, Inc., priority 2018, dated 2025).
